Measured values as given in PubChem BioAssay AID180 (DTP/NCI, 2004).
Values joined by “and” are separate entries in the source; they are usually repeats but may differ in a detail not shown here. Equal values may be shown once.

System: BDF1 mice, Adenocarcinoma 755 s.c., tumor weight T/C
Assay: NCI In Vivo Anticancer Drug Screen. Data for tumor model Adenocarcinoma 755 (subcutaneous) in B6D2F1 (BDF1) mice
Conditions: endpoint: mean tumor weight, higher = larger tumour
Procedure, shortened: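 In vivo antitumor screen on a transplantable tumor line. Result equals the measure in compound-treated animals divided by the same measure in vehicle controls.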

[1] = dose: 25.0 mg/kg/injection, schedule: Q01DX011 (ip), vehicle: carboxymethylcellulose (CMC)
[2] = dose: 50.0 mg/kg/injection, schedule: Q01DX011 (ip), vehicle: carboxymethylcellulose (CMC)
[3] = dose: 100.0 mg/kg/injection, schedule: Q01DX011 (ip), vehicle: carboxymethylcellulose (CMC)
[4] = dose: 12.5 mg/kg/injection, schedule: Q01DX011 (ip), vehicle: methylcellulose (MC)
[5] = dose: 25.0 mg/kg/injection, schedule: Q01DX011 (ip), vehicle: methylcellulose (MC)
[6] = dose: 50.0 mg/kg/injection, schedule: Q01DX011 (ip), vehicle: methylcellulose (MC)
[7] = dose: 100.0 mg/kg/injection, schedule: Q01DX011 (ip), vehicle: methylcellulose (MC)
[8] = dose: 12.0 mg/kg/injection, schedule: Q01DX011 (ip), vehicle: carboxymethylcellulose (CMC)

Question: Which T/C (dose: 5.0 mg/kg/injection, schedule: Q01DX011 (ip), vehicle: carboxymethylcellulose (CMC)) does the source give for CCOC(=O)n1cnc2ncnc(SC)c21 here?
Answer: 59 % of control

Question: What about the T/C (dose: 10.0 mg/kg/injection, schedule: Q01DX011 (ip), vehicle: carboxymethylcellulose (CMC)) of the same compound?
Answer: 80 % of control

Question: What about the T/C (dose: 12.5 mg/kg/injection, schedule: Q01DX011 (ip), vehicle: carboxymethylcellulose (CMC)) of the same compound?
Answer: 48 % of control

Question: What about the T/C [1] of the same compound?
Answer: 15 % of control

Question: What about the T/C [2] of the same compound?
Answer: 7 % of control

Question: And the T/C [3]?
Answer: 5 % of control

Question: And the T/C (dose: 200.0 mg/kg/injection, schedule: Q01DX011 (ip), vehicle: carboxymethylcellulose (CMC))?
Answer: 5 % of control

Question: Which T/C [4] does the source give for CCCCn1cnc2c(SCc3ccc(Br)cc3)nc(N)nc21 here?
Answer: 47 % of control

Question: What about the T/C [5] of the same compound?
Answer: 66 % of control

Question: What about the T/C [6] of the same compound?
Answer: 82 % of control

Question: What about the T/C [7] of the same compound?
Answer: 49 % of control

Question: Which T/C (dose: 25.0 mg/kg/injection, schedule: Q01DX011 (ip), vehicle: saline) does the source give for COC1CC(O)C(COS(C)(=O)=O)O1 (stereo unspecified) here?
Answer: 100 % of control

Question: What about the T/C (dose: 75.0 mg/kg/injection, schedule: Q01DX011 (ip), vehicle: saline) of the same compound?
Answer: 114 % of control

Question: What about the T/C (dose: 225.0 mg/kg/injection, schedule: Q01DX011 (ip), vehicle: saline) of the same compound?
Answer: 113 % of control

Question: How did the T/C (dose: 31.0 mg/kg/injection, schedule: Q01DX011 (sc), vehicle: steriod suspending solution) turn out when CC(=O)Oc1ccc2c(c1)CC[C@@H]1[C@@H]2CC[C@@]2(C)[C@H]1CC[C@]2(C)OC(C)=O was run?
Answer: 76 % of control

Question: What about the T/C (dose: 62.5 mg/kg/injection, schedule: Q01DX011 (sc), vehicle: steriod suspending solution) of the same compound?
Answer: 64 % of control

Question: What about the T/C (dose: 125.0 mg/kg/injection, schedule: Q01DX011 (sc), vehicle: steriod suspending solution) of the same compound?
Answer: 71 % of control

Question: And the T/C (dose: 250.0 mg/kg/injection, schedule: Q01DX011 (sc), vehicle: steriod suspending solution)?
Answer: 44 % of control

Question: With CCC(=O)O[C@H]1CC[C@H]2[C@@H]3CCC4=CC(=O)CC[C@]4(C)[C@H]3[C@@H](O)C[C@]12C as the compound, how does the T/C (dose: 50.0 mg/kg/injection, schedule: Q01DX011 (sc), vehicle: steriod suspending solution) read?
Answer: 121 % of control

Question: What about the T/C (dose: 200.0 mg/kg/injection, schedule: Q01DX011 (sc), vehicle: steriod suspending solution) of the same compound?
Answer: 101 % of control

Question: What does the source list for CC[C@]1(O)C[C@H]2CN(CCc3c([nH]c4ccccc34)[C@@](C(=O)OC)(c3cc4c(cc3OC)N(C=O)[C@H]3[C@@](O)(C(=O)OC)[C@H](OC(C)=O)[C@]5(CC)C=CCN6CC[C@]43[C@@H]65)C2)C1?
Answer: T/C (dose: 0.06 mg/kg/injection, schedule: Q01DX011 (ip), vehicle: saline): 95 % of control; T/C (dose: 0.12 mg/kg/injection, schedule: Q01DX011 (ip), vehicle: saline): 173 % of control; T/C (dose: 0.25 mg/kg/injection, schedule: Q01DX011 (ip), vehicle: saline): 54 % of control

Question: Which results are given for Nc1nc(I)c2[nH]cnc2n1?
Answer: T/C (dose: 15.0 mg/kg/injection, schedule: Q01DX011 (ip), vehicle: methylcellulose (MC)): 52 % of control; T/C (dose: 30.0 mg/kg/injection, schedule: Q01DX011 (ip), vehicle: methylcellulose (MC)): 109 % of control; T/C (dose: 60.0 mg/kg/injection, schedule: Q01DX011 (ip), vehicle: methylcellulose (MC)): 41 % of control; T/C (dose: 120.0 mg/kg/injection, schedule: Q01DX011 (ip), vehicle: methylcellulose (MC)): 44 % of control

Question: CSc1nc(Cl)c(Br)c(Sc2nc(N)nc3nc[nH]c23)n1 was tested. Which T/C (dose: 6.25 mg/kg/injection, schedule: Q01DX011 (ip), vehicle: methylcellulose (MC)) did it give?
Answer: 39 % of control

Question: What about the T/C [8] of the same compound?
Answer: 59 % of control

Question: What about the T/C (dose: 12.0 mg/kg/injection, schedule: Q01DX011 (ip), vehicle: methylcellulose (MC)) of the same compound?
Answer: 29 % of control

Question: And the T/C [4]?
Answer: 27 % of control

Question: And the T/C [1]?
Answer: 28 % of control

Question: And the T/C [5]?
Answer: 33 % of control and 48 % of control

Question: What about the T/C [2] of the same compound?
Answer: 5 % of control

Question: What about the T/C [6] of the same compound?
Answer: 42 % of control

Question: And the T/C [7]?
Answer: 7 % of control

Question: With [N-]=[N+]=NC1(C(=O)O)CCCC1 as the compound, how does the T/C (dose: 15.0 mg/kg/injection, schedule: Q01DX011 (ip), vehicle: carboxymethylcellulose (CMC)) read?
Answer: 109 % of control

Question: And the T/C (dose: 30.0 mg/kg/injection, schedule: Q01DX011 (ip), vehicle: carboxymethylcellulose (CMC))?
Answer: 100 % of control

Question: And the T/C (dose: 60.0 mg/kg/injection, schedule: Q01DX011 (ip), vehicle: carboxymethylcellulose (CMC))?
Answer: 120 % of control

Question: With c1ccc(CSc2ncnc3nc[nH]c23)nc1 as the compound, how does the T/C (dose: 0.75 mg/kg/injection, schedule: Q01DX011 (ip), vehicle: carboxymethylcellulose (CMC)) read?
Answer: 102 % of control

Question: What about the T/C (dose: 1.5 mg/kg/injection, schedule: Q01DX011 (ip), vehicle: carboxymethylcellulose (CMC)) of the same compound?
Answer: 40 % of control

Question: And the T/C (dose: 3.0 mg/kg/injection, schedule: Q01DX011 (ip), vehicle: carboxymethylcellulose (CMC))?
Answer: 26 % of control

Question: And the T/C (dose: 6.0 mg/kg/injection, schedule: Q01DX011 (ip), vehicle: carboxymethylcellulose (CMC))?
Answer: 9 % of control

Question: What about the T/C [8] of the same compound?
Answer: 7 % of control

Question: What about the T/C [2] of the same compound?
Answer: 5 % of control

Question: What about the T/C [3] of the same compound?
Answer: 4 % of control
